Test results reported in ChEMBL document CHEMBL1201862, “PubChem BioAssay data set” (2004).
One block for each compound: values may come before it. The source made the active and inactive calls.

Experiments:
[1] = target: Benomyl/methotrexate resistance protein (Candida albicans, UniProt P28873); assay: Candida albicans Mdr1 pump inhibition curves – singleplex, Cherry Pick1 hits, dose response (AID 588608); assay type: functional
[2] = target: T1, High affinity choline transporter 1 (Homo sapiens, UniProt Q9GZV3); assay: human choline transporter blockers, potency – cell-based, 5-point CRC, membrane potential dye, dose response (AID 504840); assay type: functional
T1 sequence (Q9GZV3 whole entry): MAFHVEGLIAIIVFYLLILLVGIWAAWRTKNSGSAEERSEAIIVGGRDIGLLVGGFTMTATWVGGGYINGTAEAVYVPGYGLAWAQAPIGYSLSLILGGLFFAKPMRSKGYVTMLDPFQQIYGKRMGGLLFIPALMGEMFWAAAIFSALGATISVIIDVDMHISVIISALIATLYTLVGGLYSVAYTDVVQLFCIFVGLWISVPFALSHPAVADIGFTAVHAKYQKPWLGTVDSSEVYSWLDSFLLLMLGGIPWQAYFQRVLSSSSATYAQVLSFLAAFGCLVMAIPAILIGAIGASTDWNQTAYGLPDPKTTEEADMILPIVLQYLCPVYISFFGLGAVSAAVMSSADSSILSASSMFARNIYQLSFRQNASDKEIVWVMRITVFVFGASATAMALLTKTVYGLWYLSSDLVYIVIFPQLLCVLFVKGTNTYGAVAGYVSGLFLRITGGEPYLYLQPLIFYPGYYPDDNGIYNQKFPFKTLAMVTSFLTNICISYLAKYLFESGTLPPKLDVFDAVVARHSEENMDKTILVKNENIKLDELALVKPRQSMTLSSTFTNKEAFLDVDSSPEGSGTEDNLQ

[3] = target: T1, High affinity choline transporter 1; assay: human choline transporter blockers, potency – cell-based, 10-point CRC, membrane potential dye, dose response (AID 588401); assay type: functional;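 note: membrane potential dye fluorescence of choline-evoked depolarization via CHT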
Protein Wnt-3a = Protein Wnt-3a (Mus musculus, UniProt P27467); assay: antagonism of Wnt3a pathway luciferase reporter – Wnt-LIGHT cells, luminescence, selectivity assay for Gli-SUFU antagonist project, dose response (AID 651570); assay type: functional; details: read-out: IC50_Mean;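 note: Wnt-LIGHT reporter cells stimulated with conditioned medium from Wnt3a-producing cells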
Protein Wnt-3a, sequence (P27467 whole entry): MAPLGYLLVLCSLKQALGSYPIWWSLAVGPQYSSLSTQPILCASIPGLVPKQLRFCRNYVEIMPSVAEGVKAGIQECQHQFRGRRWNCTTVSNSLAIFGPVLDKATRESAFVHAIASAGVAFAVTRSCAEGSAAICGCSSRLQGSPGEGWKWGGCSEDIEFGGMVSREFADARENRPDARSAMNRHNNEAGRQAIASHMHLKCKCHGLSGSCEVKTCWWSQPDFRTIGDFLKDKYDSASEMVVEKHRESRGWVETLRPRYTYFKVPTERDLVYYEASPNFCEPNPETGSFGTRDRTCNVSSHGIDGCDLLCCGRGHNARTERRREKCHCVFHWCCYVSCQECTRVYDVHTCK

Mu-type opioid receptor = Mu-type opioid receptor (Homo sapiens, UniProt P35372); assay type: functional, cell-based;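 note: U2OS cells with beta-arrestin recruitment to OPRM1 by beta-gal complementation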
Mu-type opioid receptor, sequence (P35372 whole entry): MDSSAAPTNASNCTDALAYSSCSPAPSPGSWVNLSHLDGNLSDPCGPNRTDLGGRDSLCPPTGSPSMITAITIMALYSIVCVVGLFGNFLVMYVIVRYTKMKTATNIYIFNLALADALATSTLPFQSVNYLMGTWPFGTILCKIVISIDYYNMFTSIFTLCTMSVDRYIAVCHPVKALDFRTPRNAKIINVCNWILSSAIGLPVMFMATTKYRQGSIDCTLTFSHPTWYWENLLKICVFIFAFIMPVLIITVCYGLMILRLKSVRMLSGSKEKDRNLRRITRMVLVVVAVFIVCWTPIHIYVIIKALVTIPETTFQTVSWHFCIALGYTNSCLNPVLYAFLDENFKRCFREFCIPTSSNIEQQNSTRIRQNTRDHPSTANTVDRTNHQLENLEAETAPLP

[4] = target: 5-hydroxytryptamine receptor 2A (Mus musculus, UniProt P35363); assay type: functional, cell-based;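 note: CHO-K1 cells with tagged receptor and beta-arrestin; agonist potency measured as compound-induced activation of the receptor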
5-hydroxytryptamine receptor 2A, sequence (P35363 whole entry): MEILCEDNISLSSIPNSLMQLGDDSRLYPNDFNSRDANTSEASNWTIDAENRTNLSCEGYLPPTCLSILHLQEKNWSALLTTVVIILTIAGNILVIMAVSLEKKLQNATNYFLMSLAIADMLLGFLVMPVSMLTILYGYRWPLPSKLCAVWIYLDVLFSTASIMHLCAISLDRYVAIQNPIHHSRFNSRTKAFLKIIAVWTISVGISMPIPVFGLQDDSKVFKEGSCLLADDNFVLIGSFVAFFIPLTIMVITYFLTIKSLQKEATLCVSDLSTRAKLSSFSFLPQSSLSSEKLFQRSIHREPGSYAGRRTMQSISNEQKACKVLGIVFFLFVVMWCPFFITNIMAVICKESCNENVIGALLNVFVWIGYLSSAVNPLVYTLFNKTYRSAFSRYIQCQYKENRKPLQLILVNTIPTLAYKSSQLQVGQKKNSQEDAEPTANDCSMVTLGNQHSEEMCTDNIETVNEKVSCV

[5] = target: T2, Rac GTPase-activating protein 1 (Homo sapiens, UniProt Q9H0H5); assay: blockers of MgcRacGAP-driven Rac1 GTP hydrolysis – biochemical, ADP Hunter fluorescence, primary and confirmatory, confirmation (AID 624330); assay type: functional
T2 sequence (Q9H0H5 whole entry): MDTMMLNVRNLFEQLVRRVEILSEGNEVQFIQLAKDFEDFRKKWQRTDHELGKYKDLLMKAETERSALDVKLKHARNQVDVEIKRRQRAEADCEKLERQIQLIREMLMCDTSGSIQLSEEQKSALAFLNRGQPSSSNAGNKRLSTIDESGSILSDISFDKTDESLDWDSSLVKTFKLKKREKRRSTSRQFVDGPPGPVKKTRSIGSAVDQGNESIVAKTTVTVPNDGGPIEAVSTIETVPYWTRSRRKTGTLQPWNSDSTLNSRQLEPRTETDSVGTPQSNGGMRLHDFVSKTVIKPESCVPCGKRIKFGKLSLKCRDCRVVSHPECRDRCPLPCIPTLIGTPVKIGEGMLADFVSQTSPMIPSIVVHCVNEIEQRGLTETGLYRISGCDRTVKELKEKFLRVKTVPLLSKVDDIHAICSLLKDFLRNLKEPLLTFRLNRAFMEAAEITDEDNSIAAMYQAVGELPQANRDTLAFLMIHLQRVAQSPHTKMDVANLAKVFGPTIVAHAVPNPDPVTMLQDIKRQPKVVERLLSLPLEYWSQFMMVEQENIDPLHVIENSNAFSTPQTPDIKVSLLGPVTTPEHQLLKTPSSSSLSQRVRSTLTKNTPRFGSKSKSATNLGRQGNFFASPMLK

[6] = target: T3, Sentrin-specific protease 1 (Homo sapiens, UniProt Q9P0U3); assay: SENP1 catalytic domain blockers, concentration series – biochemical, kinetic FRET, dose response (AID 651697); assay type: functional; details: read-out: IC50_Mean
T3 sequence (Q9P0U3 whole entry): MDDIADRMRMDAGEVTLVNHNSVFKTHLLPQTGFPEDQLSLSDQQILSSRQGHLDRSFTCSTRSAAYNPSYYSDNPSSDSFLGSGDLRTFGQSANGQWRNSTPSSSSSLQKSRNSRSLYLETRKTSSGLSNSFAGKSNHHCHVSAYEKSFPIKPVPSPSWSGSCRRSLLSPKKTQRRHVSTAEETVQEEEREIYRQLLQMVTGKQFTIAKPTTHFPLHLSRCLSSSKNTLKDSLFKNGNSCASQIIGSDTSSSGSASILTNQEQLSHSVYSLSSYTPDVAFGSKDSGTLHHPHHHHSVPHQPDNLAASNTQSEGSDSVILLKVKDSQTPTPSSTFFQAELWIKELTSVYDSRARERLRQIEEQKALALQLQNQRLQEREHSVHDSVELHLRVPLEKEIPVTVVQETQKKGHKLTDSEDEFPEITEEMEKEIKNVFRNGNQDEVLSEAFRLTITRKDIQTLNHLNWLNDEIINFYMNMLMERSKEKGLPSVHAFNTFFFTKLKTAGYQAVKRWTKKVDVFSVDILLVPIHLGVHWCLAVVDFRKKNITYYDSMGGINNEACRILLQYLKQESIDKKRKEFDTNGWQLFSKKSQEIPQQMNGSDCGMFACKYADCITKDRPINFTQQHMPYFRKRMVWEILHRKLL

[7] = target: T3, Sentrin-specific protease 1; assay: Dose response confirmation of small molecule inhibitors of the catalytic domain of the SUMO protease, SENP1 in a FRET assay.; assay type: functional; details: read-out: IC50_Mean
[8] = target: T4, Sentrin-specific protease 8 (Homo sapiens, UniProt Q96LD8); assay type: functional;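 note: kinetic enzyme assay of SENP8 cleaving a Nedd8 protein substrate, dose-response confirmation of screening hits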
T4 sequence (Q96LD8 whole entry): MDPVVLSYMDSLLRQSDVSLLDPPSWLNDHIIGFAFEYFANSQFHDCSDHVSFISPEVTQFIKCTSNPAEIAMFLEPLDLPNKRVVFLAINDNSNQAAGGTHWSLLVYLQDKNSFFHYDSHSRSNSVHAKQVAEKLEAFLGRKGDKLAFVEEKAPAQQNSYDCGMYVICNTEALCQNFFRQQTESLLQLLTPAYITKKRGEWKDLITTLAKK

[9] = target: T4, Sentrin-specific protease 8; assay: inhibition of human SENP8 cleavage activity – biochemical, luminescence, SAR follow-up (AID 504501); assay type: functional
Caspase-3 = target: T5, Caspase-3 (Homo sapiens, UniProt P42574); assay: SAR Analysis of small molecule inhibitors of Sentrin-specific proteases (SENPs) using a Caspase-3 Selectivity assay. [Related pubchem assays (depositor defined):AID2540, AID2599, AID434973, AID489001]; assay type: functional
T5 sequence (P42574 whole entry): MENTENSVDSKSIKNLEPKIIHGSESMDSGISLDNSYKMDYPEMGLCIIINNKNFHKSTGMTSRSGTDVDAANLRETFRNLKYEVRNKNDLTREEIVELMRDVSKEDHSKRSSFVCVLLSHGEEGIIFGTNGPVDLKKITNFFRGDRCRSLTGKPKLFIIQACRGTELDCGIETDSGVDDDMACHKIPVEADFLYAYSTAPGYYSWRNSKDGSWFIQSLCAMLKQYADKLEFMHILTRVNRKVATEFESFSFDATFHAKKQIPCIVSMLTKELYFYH

[10] = target: T6, Sentrin-specific protease 6 (Homo sapiens, UniProt Q9GZR1); assay: SAR Analysis of small molecule inhibitors of Sentrin-specific protease 6 (SENP6) using a Luminescent assay. [Related pubchem assays (depositor defined):AID2582, AID2599]; assay type: functional
T6 sequence (Q9GZR1 whole entry): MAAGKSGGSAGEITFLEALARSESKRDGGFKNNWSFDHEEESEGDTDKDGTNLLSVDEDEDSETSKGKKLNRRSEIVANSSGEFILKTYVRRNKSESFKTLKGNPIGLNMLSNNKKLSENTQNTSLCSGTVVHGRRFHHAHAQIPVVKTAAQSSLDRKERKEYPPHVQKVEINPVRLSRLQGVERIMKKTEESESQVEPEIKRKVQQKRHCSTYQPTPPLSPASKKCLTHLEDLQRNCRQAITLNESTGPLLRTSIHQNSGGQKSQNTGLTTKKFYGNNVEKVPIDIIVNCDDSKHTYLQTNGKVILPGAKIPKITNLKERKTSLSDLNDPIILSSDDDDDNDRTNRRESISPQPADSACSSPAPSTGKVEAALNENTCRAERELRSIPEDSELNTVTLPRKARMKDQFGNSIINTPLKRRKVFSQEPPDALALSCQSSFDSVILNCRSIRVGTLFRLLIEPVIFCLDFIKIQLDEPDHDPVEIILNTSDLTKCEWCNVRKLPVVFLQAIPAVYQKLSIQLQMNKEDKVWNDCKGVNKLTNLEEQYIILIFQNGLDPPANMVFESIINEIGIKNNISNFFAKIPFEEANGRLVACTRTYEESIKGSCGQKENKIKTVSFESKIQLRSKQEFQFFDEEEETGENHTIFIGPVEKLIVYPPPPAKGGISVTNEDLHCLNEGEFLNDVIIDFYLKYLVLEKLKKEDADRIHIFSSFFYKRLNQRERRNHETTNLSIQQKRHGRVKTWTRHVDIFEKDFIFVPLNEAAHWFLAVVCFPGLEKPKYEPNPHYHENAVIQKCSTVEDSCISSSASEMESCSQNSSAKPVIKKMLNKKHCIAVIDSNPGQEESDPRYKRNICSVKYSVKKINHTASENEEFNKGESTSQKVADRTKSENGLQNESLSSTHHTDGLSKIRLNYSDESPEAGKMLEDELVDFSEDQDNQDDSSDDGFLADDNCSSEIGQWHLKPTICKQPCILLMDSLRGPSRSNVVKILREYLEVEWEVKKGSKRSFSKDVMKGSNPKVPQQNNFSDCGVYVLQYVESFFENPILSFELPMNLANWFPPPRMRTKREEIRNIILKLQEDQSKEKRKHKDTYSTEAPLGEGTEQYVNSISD

[11] = target: T7, Sentrin-specific protease 7 (Homo sapiens, UniProt Q9BQF6); assay: inhibition of human SENP7 cleavage activity – biochemical, luminescence, SAR follow-up (AID 504497); assay type: functional
T7 sequence (Q9BQF6 whole entry): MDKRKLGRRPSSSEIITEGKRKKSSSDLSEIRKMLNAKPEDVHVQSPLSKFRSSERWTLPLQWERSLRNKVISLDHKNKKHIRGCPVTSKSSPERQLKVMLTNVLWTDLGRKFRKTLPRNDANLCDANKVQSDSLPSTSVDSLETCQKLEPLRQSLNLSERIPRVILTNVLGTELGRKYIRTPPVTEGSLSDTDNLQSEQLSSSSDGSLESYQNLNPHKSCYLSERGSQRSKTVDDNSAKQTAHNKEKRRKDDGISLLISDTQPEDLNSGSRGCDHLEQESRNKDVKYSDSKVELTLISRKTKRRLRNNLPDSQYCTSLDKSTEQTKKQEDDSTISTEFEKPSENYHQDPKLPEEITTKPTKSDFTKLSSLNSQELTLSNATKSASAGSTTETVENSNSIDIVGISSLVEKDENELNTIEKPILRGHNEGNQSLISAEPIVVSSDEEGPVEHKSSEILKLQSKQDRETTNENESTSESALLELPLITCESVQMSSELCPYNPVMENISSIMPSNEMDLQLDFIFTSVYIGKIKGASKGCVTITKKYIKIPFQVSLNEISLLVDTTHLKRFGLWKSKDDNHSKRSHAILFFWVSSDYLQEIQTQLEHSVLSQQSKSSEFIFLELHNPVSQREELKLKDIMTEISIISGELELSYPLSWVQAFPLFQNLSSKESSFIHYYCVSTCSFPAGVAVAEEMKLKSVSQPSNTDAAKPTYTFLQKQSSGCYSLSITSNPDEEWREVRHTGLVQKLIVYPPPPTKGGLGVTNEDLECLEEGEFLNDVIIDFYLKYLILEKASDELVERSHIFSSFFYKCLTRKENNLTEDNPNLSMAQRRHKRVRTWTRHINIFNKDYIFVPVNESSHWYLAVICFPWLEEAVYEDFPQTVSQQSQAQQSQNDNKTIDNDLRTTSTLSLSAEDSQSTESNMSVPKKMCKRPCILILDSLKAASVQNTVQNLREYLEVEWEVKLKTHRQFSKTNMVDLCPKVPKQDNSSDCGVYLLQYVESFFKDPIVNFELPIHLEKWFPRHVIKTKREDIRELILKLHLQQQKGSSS

[12] = target: Mitochondrial peptide methionine sulfoxide reductase (Bos taurus, UniProt P54149); assay type: functional;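 note: absorbance read-out, biochemical high-throughput dose-response screen for MsrA inhibitors, confirmatory; recombinant bovine MsrA coupled to E. coli TrxB with NADPH and selenocystamine; potency is for inhibitors of MsrA activity on DMSO substrate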
Mitochondrial peptide methionine sulfoxide reductase, sequence (P54149 whole entry): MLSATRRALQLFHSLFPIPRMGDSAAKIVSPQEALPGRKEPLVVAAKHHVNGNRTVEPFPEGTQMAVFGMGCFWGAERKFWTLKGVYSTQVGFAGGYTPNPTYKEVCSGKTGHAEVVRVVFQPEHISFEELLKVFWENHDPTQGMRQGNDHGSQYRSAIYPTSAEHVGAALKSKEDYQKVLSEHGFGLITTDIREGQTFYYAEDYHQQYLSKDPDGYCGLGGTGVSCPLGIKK

Benomyl/methotrexate resistance protein, sequence (P28873 whole entry): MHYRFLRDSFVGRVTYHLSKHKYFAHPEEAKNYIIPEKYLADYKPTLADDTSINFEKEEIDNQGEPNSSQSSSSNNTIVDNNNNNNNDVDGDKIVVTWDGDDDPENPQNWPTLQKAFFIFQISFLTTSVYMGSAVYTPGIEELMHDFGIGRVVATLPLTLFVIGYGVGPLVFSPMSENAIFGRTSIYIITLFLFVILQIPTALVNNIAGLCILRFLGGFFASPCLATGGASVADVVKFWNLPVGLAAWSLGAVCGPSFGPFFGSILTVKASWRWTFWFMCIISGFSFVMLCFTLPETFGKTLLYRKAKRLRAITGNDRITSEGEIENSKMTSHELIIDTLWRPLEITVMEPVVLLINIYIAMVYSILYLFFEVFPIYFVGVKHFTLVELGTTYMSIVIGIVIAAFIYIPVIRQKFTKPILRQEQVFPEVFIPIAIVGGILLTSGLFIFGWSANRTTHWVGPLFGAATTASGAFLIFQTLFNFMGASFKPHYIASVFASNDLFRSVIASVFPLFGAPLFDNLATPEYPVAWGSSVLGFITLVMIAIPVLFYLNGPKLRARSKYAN

Structure (SMILES): O=C(COC(=O)c1c2ccccc2cc2ccccc12)Nc1ncc(C(F)(F)F)cc1Cl
- EC50 [1]: 23 µM (active)

Structure (SMILES): CNc1cc(Cl)nc(SC)n1
- IC50 [2]: 3.92 µM (active)
- IC50 [3]: 2.67 µM (active)

Structure (SMILES): O=[N+]([O-])c1c[cH-]c(N2CCN(Cc3ccccc3)CC2)c2[c+]1[n-]o[n+]2=O
- IC50 [8]: 17.3 µM (active)

Structure (SMILES): C/C(=N\Nc1ccc([N+](=O)[O-])cc1[N+](=O)[O-])C(C)C(C)C (configuration not stated)
- IC50 [12]: 155 µM (inactive)

Second part, led by results:

- IC50 [2]: 7.51 µM (active)
- IC50 [3]: 6.21 µM (active)
- IC50 (Protein Wnt-3a): 19.9 µM (active)
Structure (SMILES): NC(=O)CC(NC(=O)c1ccccc1)c1ccc(N2CCCCCC2)c([N+](=O)[O-])c1 (configuration not stated)

- EC50 (Mu-type opioid receptor): 92.4 µM (inactive)
- EC50 [4]: 76.1 µM (inactive)
- IC50 [5]: 98.7 µM (active)
Structure (SMILES): COc1ccc(S(=O)(=O)N2CCC(N3CCN(Cc4ccccc4)CC3)CC2)cc1

- IC50 [6]: 26.6 µM (inactive)
- IC50 [7]: 69.6 µM (inactive)
Structure (SMILES): CC(=O)c1ccccc1Oc1nc(CN2CCOCC2)nc2scc(-c3cccs3)c12

- IC50 (Caspase-3): > 99 µM (inactive)
- IC50 [10]: 43.7 µM (active)
- IC50 [11]: 85.3 µM (active)
Structure (SMILES): CCCc1ccc(OCc2ccc(C(=O)Nc3ccccc3F)cc2)cc1
- IC50 [9]: 70.3 µM (active)

- IC50 (Caspase-3): > 99 µM (inactive)
- IC50 [10]: > 99 µM (inactive)
- IC50 [11]: > 99 µM (inactive)
Structure (SMILES): FC(F)(F)c1ccc(N/N=C/c2cn(Cc3ccccc3)c3ccccc23)cc1
- IC50 [9]: > 99 µM (inactive)

- IC50 [12]: 125 µM (inactive)
Structure (SMILES): CC(Nc1c([N+](=O)[O-])c(=O)oc2ccccc12)c1ccccc1 (configuration not stated)
